Laboratory results published in patent US7125964B2, “Purification of antigen-specific T cells” (Ortho-McNeil Pharmaceutical, Inc., priority 1996, dated 2006).
Like-named read-outs stand apart in the source and are kept apart here.

Key:
2C T cells [1] = experiment: Cell-bead complex formation, flow cytofluorometry, side scatter versus forward scatter dot plots; type: cell-based, mouse; details: 4 hours of incubation
2C T cells [2] = experiment: Recovery of 2C T cells mixed with CD8^+ T cells from naive C57BL/6 mouse by adsorption on MHC class I-coated magnetic beads; type: cell-based; details: for % 2C T cell after enrichment: 0.03% 2C T cells before enrichment
Procedure: T cell precursor frequencies in a naive animal are typically low. Magnetic beads have been found suitable in other systems to enrich low frequency cell populations (Sawada et al., 1990; Kato and Radbruch, 1993). To assess whether MHC class I-coated magnetic beads could be used for T cell precursor enrichment, we mixed fluorescein-labeled 2C T cells with CD8^+ T cells purified from naive C57BL/6 mice. After incubation with MHC-coated magnetic beads in the presence of peptide, adsorbed cells were eluted and counted, and the percentage of 2C T cells was determined by flow cytofluorometry. In the experiment shown in FIG. 5, 2C T cells were undetectable at the initial frequency of 0.03%. Following adsorption using K^bm3-coated beads and dEV-8 peptide, a definite peak of green fluorescence was observed, displaying the same intensity as the original fluorescein-stained 2C T cell population. This peak represented 65.1% of the eluted cells. No peak was observed when a control peptide was used instead of dEV-8. […] In all cases, the non-fluorescent cells in the eluted population represented only a minor fraction of the initial cell population (˜0.2%).

2C T cells [3] = experiment: Influence of temperature and CD8 on cell-bead complex formation, flow cytofluorometry; type: cell-based, mouse; details: for CD8 dependence of cell capture: purified 2C T cells versus CD8^− 2C T cells, room temperature, 3 hours
Procedure: We used flow cytofluorometry analysis to quantitate the influence of various parameters on cell-bead complex formation. Attachment of cells to beads was time dependent. […] Kinetics of adsorption were remarkably parallel for various peptide-MHC complexes. At 4° C., only a small percentage of cells was captured on beads, even after prolonged incubation. […] ([…], 1996).

[4] = biological target: 2C T cell receptor (2C TCR) on naive T cells purified from 2C TCR transgenic mice (mouse); experiment: 2C T cells with MHC-coated magnetic beads, 4 h, flow cytofluorometry, forward versus side scatter
[5] = biological target: 2C T cell receptor (2C TCR) on naive T cells purified from 2C TCR transgenic mice (mouse); experiment: 2C T cells mixed with CD8+ T cells of naive B6 mouse (0.03%), adsorption on MHC class I-coated magnetic beads, 2 experiments
2C T cells [6] = experiment: Capture of 2C T cells on MHC-coated magnetic beads, microscopic examination; type: cell-based, mouse; details: readout not stated
2C TCR = details: association constant, cited from earlier work; for affinity of peptide-MHC complex for the 2C TCR: recently determined; for 2C TCR affinity for L^d-peptide: Sykulev et al, 1994 a, b
L^d = biological target: T1, L^d (Mus musculus, UniProt P01897); details: association constant; cited from earlier work
T1 sequence (P01897 25-298 limits assumed): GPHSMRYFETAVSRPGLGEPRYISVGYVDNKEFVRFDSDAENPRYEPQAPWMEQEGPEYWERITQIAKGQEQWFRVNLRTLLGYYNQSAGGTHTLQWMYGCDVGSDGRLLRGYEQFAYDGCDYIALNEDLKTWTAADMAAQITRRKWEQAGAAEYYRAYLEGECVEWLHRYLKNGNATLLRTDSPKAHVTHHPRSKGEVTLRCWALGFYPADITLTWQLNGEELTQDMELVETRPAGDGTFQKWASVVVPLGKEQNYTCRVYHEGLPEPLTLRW
T1 sequence (P01887 21-119 partner): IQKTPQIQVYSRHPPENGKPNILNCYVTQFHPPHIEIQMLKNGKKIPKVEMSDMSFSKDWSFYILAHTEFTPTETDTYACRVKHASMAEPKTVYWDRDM

[7] = biological target: 2C T cell receptor (2C TCR) on naive T cells purified from 2C TCR transgenic mice (mouse); experiment: 2C T cells with MHC-coated magnetic beads, flow cytofluorometry, forward versus side scatter
[8] = biological target: 2C T cell receptor (2C TCR) on naive T cells purified from 2C TCR transgenic mice (mouse); experiment: fluorescein-labeled 2C T cells with phycoerythrin-labeled L^d-coated beads, flow cytofluorometry, green versus red dot plots; laid by the filing to non-specific adsorption of cell debris
[9] = biological target: 2C T cell receptor (2C TCR) on naive T cells purified from 2C TCR transgenic mice (mouse); experiment: 2C T cells mixed with CD8+ T cells of naive B6 mouse (0.03%), adsorption on MHC class I-coated magnetic beads, 3 experiments
[10] = biological target: 2C T cell receptor (2C TCR) on naive T cells purified from 2C TCR transgenic mice (mouse); experiment: fluorescein-labeled 2C T cells with phycoerythrin-labeled L^d-coated beads, flow cytofluorometry, green versus red dot plots
[11] = biological target: 2C T cell receptor (2C TCR) on naive T cells purified from 2C TCR transgenic mice (mouse); experiment: 2C T cells with MHC-coated magnetic beads, flow cytofluorometry, temperature dependence
EL4 cells = type: cell-based, mouse
2C T cells [12] = experiment: Cell-bead complex formation, flow cytofluorometry, green versus red fluorescence dot plots; type: cell-based, mouse; details: L^d-coated beads, 20 μM peptide

For EQYKFYSV [dEV-8, ID; NO.: 5], the “percentage of cells adsorbed to beads (CO/CO+CE)” value (“percentage of cells adsorbed” for short) (2C T cells [1]; K^bm3-coated beads) was 63.8%, the “2C T cell enrichment” value (2C T cells [2]; K^bm3-coated beads) was 1697 ± 473 fold and the “% 2C T cell after enrichment” value (2C T cells [2]; K^bm3-coated beads) was 50.9 ± 14.2%. For the same molecule, the “CD8 dependence of cell capture” value (2C T cells [3]) was “most CD8-dependent”.

“K^b-SIYR complex on avidin-coated magnetic beads (from UniProt P01887 21-119; P01901 22-369) (peptide-MHC)” showed a % of cells adsorbed to beads [4] of 75.7% and a 2C T cell recovery [5] of 56.8%.

For “K^b-SIYR: complex of K^b with peptide SIYR”, the “capture of 2C T cells observed or not” value (2C T cells [6]) is given as “consistently observed capture” and the “affinity of peptide-MHC complex for the 2C TCR” value (shortened to “affinity of peptide-MHC complex”) (2C TCR) is given as 31000 M⁻¹.

For “K^b-dEV-8: complex of K^b with peptide dEV-8”, the “capture of 2C T cells observed or not” value (2C T cells [6]) is given as “not” and the “affinity of peptide-MHC complex” value (2C TCR) is given as 12000 M⁻¹.

“K^bm3-dEV-8 complex on avidin-coated magnetic beads (from UniProt P01887 21-119) (peptide-MHC)” showed a % of cells adsorbed to beads [4] of 63.8% and a 2C T cell recovery [5] of 47.7%.

For LSPFPFDL [p2Ca], the “percentage of cells adsorbed” value (2C T cells [1]; L^d-coated beads) is given as 78.9%, the “CD8 dependence of cell capture” value (2C T cells [3]) is given as “most CD8-dependent” and the “2C TCR affinity for L^d-peptide” value (2C TCR) is given as 2e+06 M⁻¹. The “Peptide affinity for L^d” value (L^d) was 4e+06 M⁻¹.

Molecule “L^d-LCMV complex on avidin-coated magnetic beads (from UniProt P01887 21-119; P01897 25-362) (peptide-MHC)” has a % of events in the complex region [7] of 2.6% and a % red and green colored events [8] of 2.2%.

In the case of “L^d-QL9 complex on avidin-coated magnetic beads (from UniProt P01887 21-119; P01897 25-362) (peptide-MHC)”, the % of cells adsorbed to beads [4] is reported as 91%, the 2C T cell recovery [9] is reported as 90% and the % of cells complexed to beads [10] is reported as greater than 85%.

For “L^d-QL9: complex of MHC class I molecule L^d with peptide QL9”, the “CD8 dependence of cell capture” value (2C T cells [3]) was “largely CD8 independent”.

“L^d-SL9 complex on avidin-coated magnetic beads (from UniProt P01887 21-119; P01897 25-362) (peptide-MHC)” showed a % of cells complexed to beads [10] greater than 85%.

In the case of “L^d-SL9: complex of L^d with peptide SL9”, the “affinity of peptide-MHC complex” value (2C TCR) is given as 14000 M⁻¹.

Molecule “L^d-p2Ca complex on avidin-coated magnetic beads (from UniProt P01887 21-119; P01897 25-362) (peptide-MHC)” has an attachment level at 37° C. against the value at room temperature [11] of 25%, a % of cells adsorbed to beads [4] of 78.9% and a % of cells complexed to beads [10] greater than 85%.

In the case of “L^d-p2Ca-A3: complex of L^d with peptide p2Ca-A3”, the “capture of 2C T cells observed or not” value (2C T cells [6]) is listed as “not” and the “affinity of peptide-MHC complex” value (2C TCR) is listed as 20000 M⁻¹.

For “L^d-p2Ca: complex of L^d with peptide p2Ca”, the “attachment levels at 37° C. relative to values measured at room temperature” value (2C T cells [3]; 37° C. versus room temperature) was “about 25%” and the “CD8 dependence of cell capture” value (2C T cells [3]) was “exhibited CD8 dependence”.

With QLSPFPFDL [QL9] the “percentage of cells adsorbed” value (2C T cells [1]; L^d-coated beads) was 91.0%, the “2C T cell enrichment” value (2C T cells [2]; L^d-coated beads) was 828 ± 230 fold and the “% 2C T cell after enrichment” value (2C T cells [2]; L^d-coated beads) was 24.8 ± 6.9%. For the same molecule, the “CD8 dependence of cell capture” value (2C T cells [3]) was “CD8 independent”, the “2C TCR affinity for L^d-peptide” value (2C TCR) was 10^7 M^−1 and the “Peptide affinity for L^d” value (L^d) was 2e+08 M⁻¹.

For RGYVYQGL [VSV-8], the “CTL activity of cells captured and cultured with the same peptide” value (EL4 cells) was “displayed a CTL activity specific for VSV-8” and the “CTL precursors for the other peptide in captured cells” value (EL4 cells) was “no detectable anti-OVA-8 CTL precursors”.

In the case of RPQASGVYM [LCMV], the “percentage of cells complexed to beads (RG/G+RG)” value (2C T cells [12]) is reported as 2.2%.

For SIINFEKL [OVA-8, ID; NO.: 9], the “CTL activity of cells captured and cultured with the same peptide” value (EL4 cells; K^b-coated beads, naive C57BL/6 CD8^+ T cells, tested at day 18, peptides 1 μM) was “displayed a CTL activity specific for OVA-8 peptide” and the “CTL precursors for the other peptide in captured cells” value (EL4 cells; reverse combination: captured with one peptide, activated in culture with the other) was “no detectable anti-VSV-8 CTL precursors”.

For SIYRYYGL, the “percentage of cells adsorbed” value (2C T cells [1]; K^b-coated beads) was 75.7%, the “2C T cell enrichment” value (2C T cells [2]; K^b-coated beads) was 1588 ± 71 fold and the “% 2C T cell after enrichment” value (2C T cells [2]; K^b-coated beads) was 47.6 ± 2.1%. For the same molecule, the “CD8 dependence of cell capture” value (2C T cells [3]) was “CD8 independent”.

In the case of SPFPFDLLL [SL9, ID; NO.: 3], the “2C TCR affinity for L^d-peptide” value (2C TCR) is given as 14000 M⁻¹ and the “Peptide affinity for L^d” value (L^d) is given as 4e+07 M⁻¹.

In the case of YPHFMPTNL [MCMV, ID; NO.: 8], the “2C TCR affinity for L^d-peptide” value (2C TCR) is given as <10^3 M^−1 and the “Peptide affinity for L^d” value (L^d) is given as 2e+09 M⁻¹.

B1: K^b-E1: non-2C reactive complex of K^b with peptide E1 (protein)
MHC heavy: GPHSLRYFVTAVSRPGLGEPRYMEVGYVDDTEFVRFDSDAENPRYEPRARWMEQEGPEYWERETQKAKGNEQSFRVDLRTLLGYYNQSKGGSHTIQVISGCEVGSDGRLLRGYQQYAYDGCDYIALNEDLKTWTAADMAALITKHKWEQAGEAERLRAYLEGTCVEWLRRYLKNGNATLLRTDSPKAHVTHHSRPEDKVTLRCWALGFYPADITLTWQLNGEELIQDMELVETRPAGDGTFQKWASVVVPLGKEQYYTCHVYHQGLPEPLTLRWEPPPSTVSNMATVAVLVVLGAAIVTGAVVAFVMKMRRRNTGGKGGDYALAPGSQTSDLSLPDCKVMVHDPHSLA
b2m: IQKTPQIQVYSRHPPENGKPNILNCYVTQFHPPHIEIQMLKNGKKIPKVEMSDMSFSKDWSFYILAHTEFTPTETDTYACRVKHASMAEPKTVYWDRDM
peptide: EIINFEKL
For B1, the “percentage of cells adsorbed” value (2C T cells [1]; K^b-coated beads) was 0.2%.
